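Dose response: 5 concentrations. Exposure: 48 h. Format: 96-well plates. Endpoint: linear interpolation; highest concentration if not reached. At the GI50, growth is halved. TGI marks complete inhibition of growth.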
Tests used:
Experiment in all cases: DTP human tumour cell line panel, 48 h
MDA-MB-435 = system: MDA-MB-435
A498 renal = system: A498 renal
M14 melanoma = system: M14 melanoma
NCI-H226 lung = system: NCI-H226 lung
UACC-257 melanoma = system: UACC-257 melanoma
CAKI-1 renal = system: CAKI-1 renal
HS 578T breast = system: HS 578T breast
RXF 393 renal = system: RXF 393 renal
SK-OV-3 ovarian = system: SK-OV-3 ovarian
DU-145 prostate = system: DU-145 prostate
SK-MEL-5 melanoma = system: SK-MEL-5 melanoma
TK-10 renal = system: TK-10 renal
SK-MEL-2 melanoma = system: SK-MEL-2 melanoma
OVCAR-4 ovarian = system: OVCAR-4 ovarian
UO-31 renal = system: UO-31 renal
OVCAR-3 ovarian = system: OVCAR-3 ovarian
SK-MEL-28 melanoma = system: SK-MEL-28 melanoma
MALME-3M melanoma = system: MALME-3M melanoma
IGROV1 ovarian = system: IGROV1 ovarian
K-562 leukemia = system: K-562 leukemia
HOP-92 NSCLC = system: HOP-92 NSCLC
U251 CNS = system: U251 CNS
LOX IMVI melanoma = system: LOX IMVI melanoma
SR leukemia = system: SR leukemia
OVCAR-8 ovarian = system: OVCAR-8 ovarian
MDA-MB-231 breast = system: MDA-MB-231 breast
786-0 renal = system: 786-0 renal
NCI-H23 lung = system: NCI-H23 lung
SF-539 CNS = system: SF-539 CNS
SNB-19 CNS = system: SNB-19 CNS
UACC-62 melanoma = system: UACC-62 melanoma
EKVX NSCLC = system: EKVX NSCLC
SF-268 CNS = system: SF-268 CNS
BT-549 breast = system: BT-549 breast
HT29 colon = system: HT29 colon
HOP-62 NSCLC = system: HOP-62 NSCLC
HCC-2998 colon = system: HCC-2998 colon
T-47D breast = system: T-47D breast
ACHN renal = system: ACHN renal
A549 NSCLC = system: A549 NSCLC
HCT-116 colon = system: HCT-116 colon
COLO 205 colon = system: COLO 205 colon
SF-295 CNS = system: SF-295 CNS
OVCAR-5 ovarian = system: OVCAR-5 ovarian
PC-3 prostate = system: PC-3 prostate
NCI-H522 lung = system: NCI-H522 lung
SN12C renal = system: SN12C renal
HCT-15 colon = system: HCT-15 colon
KM12 colon = system: KM12 colon
NCI/ADR-RES ovarian = system: NCI/ADR-RES ovarian
SW-620 colon = system: SW-620 colon
SNB-75 CNS = system: SNB-75 CNS

`N=C(N)c1ccc(-c2ccc(-c3ccc(F)cc3)s2)s1` gave a GI50 (MDA-MB-435) of 1.59 µM, a TGI (MDA-MB-435) of 2.93 µM and a GI50 (A498 renal) of 1.95 µM. It also gave a TGI (A498 renal) of 4.65 µM, a GI50 (M14 melanoma) of 1.89 µM and a TGI (M14 melanoma) of 3.4 µM. The GI50 (NCI-H226 lung) was 14.2 µM, the TGI (NCI-H226 lung) was 54.2 µM and the GI50 (UACC-257 melanoma) was 2.19 µM. The TGI (UACC-257 melanoma) was 4.15 µM, the GI50 (CAKI-1 renal) was 1.68 µM and the TGI (CAKI-1 renal) was 3.08 µM. The GI50 (HS 578T breast) was 2.19 µM, the TGI (HS 578T breast) was 4.85 µM and the GI50 (RXF 393 renal) was 1.75 µM. For the same compound, the TGI (RXF 393 renal) was 3.34 µM, the GI50 (SK-OV-3 ovarian) was 1.8 µM and the TGI (SK-OV-3 ovarian) was 3.57 µM. The GI50 (DU-145 prostate) was 1.72 µM, the TGI (DU-145 prostate) was 3.19 µM and the GI50 (SK-MEL-5 melanoma) was 1.81 µM. For the same compound, the TGI (SK-MEL-5 melanoma) was 3.2 µM, the GI50 (TK-10 renal) was 1.72 µM and the TGI (TK-10 renal) was 3.14 µM.

`O=C1c2ccn(CCCCN3CCC(O)CC3)c2C(=O)c2c1c(O)c1ccccc1c2O` showed a GI50 (SK-MEL-2 melanoma) of 2.45 µM, a TGI (SK-MEL-2 melanoma) of 8.32 µM and a GI50 (OVCAR-4 ovarian) of 17.9 µM. For the same compound, the TGI (OVCAR-4 ovarian) was over 64.4 µM, the GI50 (UO-31 renal) was 2.4 µM and the TGI (UO-31 renal) was 11.9 µM. The GI50 (OVCAR-3 ovarian) was 2.24 µM, the TGI (OVCAR-3 ovarian) was 4.95 µM and the GI50 (SK-MEL-28 melanoma) was 13.3 µM. The TGI (SK-MEL-28 melanoma) was over 41 µM, the GI50 (MALME-3M melanoma) was 16.5 µM and the TGI (MALME-3M melanoma) was 41.8 µM. It also gave a GI50 (A498 renal) of 23.7 µM, a TGI (A498 renal) of 55.4 µM and a GI50 (IGROV1 ovarian) of 2.53 µM. It also gave a TGI (IGROV1 ovarian) of over 100 µM, a GI50 (K-562 leukemia) of 1.77 µM and a TGI (K-562 leukemia) of over 100 µM. For the same compound, the GI50 (HOP-92 NSCLC) was 8.95 µM, the TGI (HOP-92 NSCLC) was 41.1 µM and the GI50 (U251 CNS) was 15.4 µM. It also gave a TGI (U251 CNS) of 43.4 µM, a GI50 (LOX IMVI melanoma) of 8.04 µM and a GI50 (SR leukemia) of over 100 µM. The TGI (SR leukemia) was over 100 µM, the GI50 (OVCAR-8 ovarian) was 25.6 µM and the TGI (OVCAR-8 ovarian) was 75.3 µM. It also gave a GI50 (MDA-MB-231 breast) of 13.3 µM, a TGI (MDA-MB-231 breast) of 38.3 µM and a GI50 (786-0 renal) of 13.1 µM. For the same compound, the TGI (786-0 renal) was 31.1 µM, the GI50 (NCI-H23 lung) was 1.97 µM and the TGI (NCI-H23 lung) was 3.84 µM. For the same compound, the GI50 (SF-539 CNS) was 43.8 µM, the TGI (SF-539 CNS) was over 100 µM and the GI50 (SNB-19 CNS) was over 52.2 µM. It also gave a TGI (SNB-19 CNS) of over 86.9 µM, a GI50 (UACC-62 melanoma) of 2.13 µM and a TGI (UACC-62 melanoma) of 5.36 µM. For the same compound, the GI50 (EKVX NSCLC) was 14.5 µM, the TGI (EKVX NSCLC) was 46.5 µM and the GI50 (SF-268 CNS) was 17.8 µM. For the same compound, the TGI (SF-268 CNS) was over 74.3 µM, the GI50 (BT-549 breast) was 13.2 µM and the TGI (BT-549 breast) was 51.6 µM. For the same compound, the GI50 (HT29 colon) was 46.9 µM, the TGI (HT29 colon) was over 100 µM and the GI50 (HOP-62 NSCLC) was 16.3 µM. For the same compound, the TGI (HOP-62 NSCLC) was 34.9 µM, the GI50 (M14 melanoma) was 1.95 µM and the TGI (M14 melanoma) was 3.69 µM. For the same compound, the GI50 (HCC-2998 colon) was 20.6 µM, the TGI (HCC-2998 colon) was over 59.5 µM and the GI50 (T-47D breast) was over 46 µM. It also gave a TGI (T-47D breast) of over 67.6 µM, a GI50 (ACHN renal) of 15.2 µM and a TGI (ACHN renal) of 32.8 µM. The GI50 (A549 NSCLC) was 26.2 µM, the TGI (A549 NSCLC) was 68.9 µM and the GI50 (HCT-116 colon) was 1.84 µM. The GI50 (COLO 205 colon) was 37.2 µM, the TGI (COLO 205 colon) was over 66.2 µM and the GI50 (NCI-H226 lung) was 23.7 µM. It also gave a TGI (NCI-H226 lung) of 60.2 µM, a GI50 (SF-295 CNS) of 3.25 µM and a TGI (SF-295 CNS) of 9.69 µM. It also gave a GI50 (OVCAR-5 ovarian) of 33.4 µM, a TGI (OVCAR-5 ovarian) of over 66.8 µM and a GI50 (UACC-257 melanoma) of 17.3 µM. The TGI (UACC-257 melanoma) was over 64.1 µM, the GI50 (CAKI-1 renal) was 13.9 µM and the TGI (CAKI-1 renal) was 43.7 µM. It also gave a GI50 (PC-3 prostate) of 1.35 µM, a TGI (PC-3 prostate) of 3.16 µM and a GI50 (NCI-H522 lung) of 2.86 µM. For the same compound, the TGI (NCI-H522 lung) was 14.4 µM, the GI50 (SN12C renal) was 15.2 µM and the TGI (SN12C renal) was 34.9 µM. The GI50 (HCT-15 colon) was 2.68 µM, the TGI (HCT-15 colon) was 8.83 µM and the GI50 (HS 578T breast) was 29.2 µM. For the same compound, the TGI (HS 578T breast) was over 83.8 µM, the GI50 (SK-OV-3 ovarian) was 41.3 µM and the TGI (SK-OV-3 ovarian) was over 74.6 µM. For the same compound, the GI50 (DU-145 prostate) was 7.98 µM, the GI50 (KM12 colon) was 1.96 µM and the TGI (KM12 colon) was 5.2 µM. The GI50 (NCI/ADR-RES ovarian) was 78.8 µM, the TGI (NCI/ADR-RES ovarian) was over 100 µM and the GI50 (SW-620 colon) was 4.48 µM. It also gave a TGI (SW-620 colon) of over 100 µM, a GI50 (SK-MEL-5 melanoma) of 16.6 µM and a TGI (SK-MEL-5 melanoma) of 96.2 µM. For the same compound, the GI50 (TK-10 renal) was 1.65 µM, the TGI (TK-10 renal) was 3.36 µM and the GI50 (SNB-75 CNS) was 42.6 µM. The TGI (SNB-75 CNS) was over 61.2 µM.
